Experimental data as given in EP3313408B1, “DROSPIRENONE-BASED CONTRACEPTIVE FOR A PATIENT AFFECTED WITH EXCESS WEIGHT” (Laboratorios Leon Farma SA, priority 2015, dated 2016).

Assay: Trial CF111/302: number of days with bleeding and/or spotting over 9 treatment cycles
Format: in vivo, women
Protocol: The study CF111/302 below represents a pivotal, multicentre, double-blind, double-dummy, randomised trial on the contraceptive efficacy, tolerability and safety of LF111 (DRSP) over 9 cycles of 28 days of treatment (24 active test product tablets followed by 4 days of placebo tablets).
LF111 film-coated tablets (test product; 24 tablets containing 4 mg DRSP followed by 4 placebo tablets; León Farma) was orally administered during this trial. LF111 tablets are of the following formula: […]
This prospective, multicentre, randomised, double-blind, double-dummy trial was conducted on 857 women without uncontrolled current diseases, at risk of pregnancy, at the age of 18-45 years, systolic blood pressure < 140 mmHg, diastolic blood pressure < 90 mmHg followed in approximately 73 centres in Austria, Czech Republic, Germany, Hungary, Poland, Romania, Slovakia and Spain.
After providing informed consent at visit 1a (screening; V 1a) and receiving study medication at visit 1b, subjects will attend visits 2 to 4 at day 24±2 of the 1st, 3rd, and 6th cycle, and visit 5 (V5) at day 29+2 of the 9th cycle. The follow-up (visit 6; V6) will take place 7-10 days after last LF1 1 1 intake.
The planned total duration of the trial was set to be 16 months, with a maximum of 6 months for the enrolment process, a maximum of 9 months for the contraceptive treatment per se and 10 days for the follow-up step. The duration of contraceptive treatment for the individual women is 9 x 28 days. […]

Structure (SMILES): C#C[C@]1(O)CC[C@H]2[C@@H]3CCC4=CCCC[C@@H]4[C@H]3C(=C)C[C@@]21CC [desogestrel]
- Bleeding or spotting Mean # days (Period cycles 2-4, BMI < 30 kg/m^2): 16.6 days
- Bleeding or spotting Mean # days (Period cycles 2-4, BMI ≥ 30 kg/m^2): 21.8 days
- Bleeding or spotting Mean # days (Period cycles 2-6, BMI < 30 kg/m^2): 24.1 days
- Bleeding or spotting Mean # days (Period cycles 2-6, BMI ≥ 30 kg/m^2): 16.3 days
- Bleeding or spotting Mean # days (Period cycles 2-9, BMI < 30 kg/m^2): 34.7 days
- Bleeding or spotting Mean # days (Period cycles 2-9, BMI ≥ 30 kg/m^2): 33.9 days
